According to ChEMBL document CHEMBL4334535, “Novel Pyrazolyl-dihydroisoquinolines as Positive Allosteric Modulator of the Dopamine D1 Receptor” (ACS Med Chem Lett, 2020):
Calls of active or inactive are those of the source. The calls are words filed in the database; no cut-off is given here.

Experiments:
D(1A) dopamine receptor [1] = target: T1, D(1A) dopamine receptor (Homo sapiens, UniProt P21728); experiment: Potentiation of dopamine-induced positive allosteric modulation of human D1 receptor expressed in HEK293 cells assessed as cAMP production measured after 60 to 90 mins by HTRF assay relative to control; type: functional, cell-based; set-up: concentration or dose not given beside the values
T1 sequence (P21728 whole entry): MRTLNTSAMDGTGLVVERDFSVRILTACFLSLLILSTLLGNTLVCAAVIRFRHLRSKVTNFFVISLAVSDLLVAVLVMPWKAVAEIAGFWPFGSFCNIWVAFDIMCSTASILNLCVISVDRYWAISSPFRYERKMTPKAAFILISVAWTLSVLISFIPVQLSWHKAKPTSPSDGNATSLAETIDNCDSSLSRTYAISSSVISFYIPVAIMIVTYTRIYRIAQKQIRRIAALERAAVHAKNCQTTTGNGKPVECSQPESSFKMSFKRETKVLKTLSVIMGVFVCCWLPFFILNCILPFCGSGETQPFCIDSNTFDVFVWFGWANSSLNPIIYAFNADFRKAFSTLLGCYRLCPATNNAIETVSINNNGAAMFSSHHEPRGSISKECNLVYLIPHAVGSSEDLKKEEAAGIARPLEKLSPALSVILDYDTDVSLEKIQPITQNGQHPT

Mus musculus = experiment: Increase in basal locomotor activity in transgenic knockout C57BL/6 mouse expressing human D1 receptor mouse at 10 ml/kg, po measured every 10 mins for 60 mins by automated system analysis; type: functional, organism-based
D(1A) dopamine receptor [2] = target: T1, D(1A) dopamine receptor; experiment: Positive allosteric modulation of human D1 receptor expressed in HEK293 assessed as cAMP production incubated for 60 mins by HTRF assay; type: functional, cell-based

Row | Activity (Mus musculus) | EC50 (D(1A) dopamine receptor [2]) [nM] | Compound | Activity (D(1A) dopamine receptor [1]) [%]
1 |  |  | C[C@H]1c2cccc(-c3cn[nH]c3)c2C[C@H](CO)N1C(=O)Cc1cc(F)ccc1Cl | 79.8
2 |  |  | C[C@H]1c2cccc(-c3cn[nH]c3)c2C[C@H](CO)N1C(=O)Cc1c(F)cccc1F | 78.1
3 | Active |  | C[C@H]1c2cccc(-c3cnn(C)c3)c2C[C@H](CO)N1C(=O)Cc1c(Cl)cccc1Cl | 91.4
4 |  |  | C[C@H]1c2cccc(-c3cn[nH]c3)c2C[C@H](CO)N1C(=O)Cc1c(F)cccc1Cl | 81.5
5 |  |  | C[C@H]1c2cccc(-c3cnn(C)c3)c2C[C@H](CO)N1C(=O)Cc1ccccc1Cl | 80.4
6 |  | 18.3 | C[C@H]1c2cccc(-c3cnn(CCO)c3)c2C[C@H](CO)N1C(=O)Cc1c(Cl)cccc1Cl | 79.1
7 | Active |  | C[C@H]1c2cccc(-c3cn[nH]c3)c2C[C@H](CO)N1C(=O)Cc1c(Cl)cccc1Cl | 75.9
8 |  |  | CCn1cc(-c2cccc3c2C[C@H](CO)N(C(=O)Cc2c(Cl)cccc2Cl)[C@H]3C)cn1 | 91.2
9 |  |  | C[C@H]1c2cccc(-c3cn[nH]c3)c2C[C@H](CO)N1C(=O)Cc1ccc(F)cc1Cl | 77.1
10 |  |  | C[C@H]1c2cccc(-c3cnn(C4CC4)c3)c2C[C@H](CO)N1C(=O)Cc1c(Cl)cccc1Cl | 88.1
